The record followed here is EP4729061A1, “USE OF AKT INHIBITOR IN PREPARATION OF DRUG FOR PREVENTING OR TREATING BREAST CANCER” (Nanjing Chia Tai Tianqing Pharmaceutical Co., Ltd., priority 2023, dated 2024).

Each structure is given as a SMILES string. Like-named read-outs stand apart in the source and are kept apart here.

Data set [1] concerns MCF-7 human breast cancer subcutaneous xenograft model. Nature of the data set: Tumor inhibition in subcutaneous xenograft model. It is filed as in vivo, female BALB/c nude mice. Conditions: the compound of Formula (A) 25 mg/kg p.o. QD, Fulvestrant 5 mg/mouse s.c. QW; for Body weight Post 28 Days of Treatment: mean ± standard error; for Body weight Post 28 Days of Treatment / Tumor Volume 28 Days After Administration: n=12, x 4 weeks; for Tumor Volume 28 Days After Administration: tumor volume at grouping 204 ± 6, P <0.001 vs control; for T/C: relative tumor volume increase ratio; for T/C / TGI: day 28; for TGI: tumor growth inhibition rate. The text has this: The purpose of this study is to evaluate the therapeutic efficacy of the compound of Formula (A) in combination with fulvestrant in the MCF-7 human breast cancer subcutaneous xenograft model in female BALB/c nude mice.
BALB/c nude mice, 6-8 weeks old, female, weighing 18-20 g, were purchased from Beijing Anikeeper Biotech Co., Ltd.. The feeding environment was SPF-grade, the temperature is (23±3)°C and the humidity is 40-70%.
Solvent for the compound of Formula (A): 1,2-Propanediol (PG) : 50% Solutol HS-15 : 0.5% Hydroxypropyl Methylcellulose (HPMC) = 2 : 1 : 7.
Compound preparation methods
MCF-7 tumor cells were cultured in DMEM medium containing inactivated 15% fetal bovine serum, 100 U/mL penicillin, and 100 µg/mL streptomycin in an incubator at 37°C with 5% CO2. Tumor cells in the logarithmic growth phase were used for in vivo tumor inoculation.
One day before the inoculation of MCF-7 tumor cells, the mice were subcutaneously implanted with an estrogen tablet (0.5 mg, 90-day release period) on the left side. MCF-7 tumor cells resuspended in serum-free DMEM medium were inoculated subcutaneously into the right costal region of the experimental animals at a density of 1.5 × 10^7 cells (0.2 mL + Matrigel), with a total of 72 animals inoculated. When the tumors grew to approximately 204 mm^3, 48 animals with relatively uniform tumor volumes were selected for grouping and administration, divided into 4 groups, and administered according to the dosing schedule. Table 8. Compounds administration schedule
Tumor volume was measured twice a week using a vernier caliper. The long diameter and short diameter of the tumor were measured, and the volume was calculated using the formula: Volume = 0.5×long diameter×short diameter^2.
While measuring the tumor volume, the body weight of the mice was weighed. The relationship between the changes in the mice's body weight and the administration time was recorded. Meanwhile, the survival status and health conditions of the mice were observed, such as their general states including activity and food intake during the administration period.
Tumor Growth Inhibition Rate(TGI,%) = (1−T/C) × 100 [formula]
Statistical analysis of tumor volume between groups was performed using the statistical software SPSS 16.0 and One-Way ANOVA test. A p-value < 0.05 was considered statistically significant.

Data set [2] can be described thus: Clinical trial of the compound of Formula (A) tablets as monotherapy: pharmacokinetics. The format is in vivo, patients with advanced malignant solid tumors. The conditions noted are these: 400mg Monotherapy; for half-life / AUC(0-t) / Cmax / Vd/F: 400 mg. The text has this:
All contents of the trial protocol with registration number CTR20211999 on the China Drug Clinical Trial Registration and Information Disclosure Platform and results thereof are incorporated herein by reference.
Study Objectives: To evaluate the safety and tolerability of the compound of Formula (A) in patients with advanced malignant solid tumors (including breast cancer and ovarian cancer) who have failed standard treatment, and to explore the maximum tolerated dose (MTD) of the compound of Formula (A), and determine the recommended phase II dose (RP2D). To evaluate the pharmacokinetic (PK) characteristics of the compound of Formula (A) following a single dose and continuous administration for 21 days in patients with advanced solid tumors. To assess the preliminary efficacy of the compound of Formula (A) in the treatment of advanced solid tumors.
Trial Design: The study was an open-label, single-arm, non-randomized clinical trial focusing on safety, efficacy, and pharmacokinetics. The first part was the dose-finding phase, and the second part was the dose-expansion phase.
A starting dose of 20 mg of the compound of Formula (A) was selected, with successive dose-finding groups set as 20 mg, 50 mg, 100 mg, 200 mg, 300 mg, and 400 mg. The administration regimen included once-daily single-dose administration (with a 7-day washout period) and multiple-dose administration (continuous administration for 21 days, 28 days as one cycle, treatment continued until intolerable toxicity, disease progression, or subject withdrawal).
The dose-expansion phase was initiated after the completion of the dose-finding phase. Based on the results of dose escalation, the dosage for the dose-expansion group was determined, with oral administration once daily (continuous administration for 21 days, 28 days as one cycle, and treatment will be continued until intolerable toxicity, disease progression, or subject withdrawal).
1) Safety and Tolerability: Maximum Tolerated Dose (MTD) and Dose-Limiting Toxicity (DLT); 2) PK Indicators: See Tables 13 and 14 below; 3) Efficacy Indicators: Objective Response Rate (ORR), Disease Control Rate (DCR), Duration of Response (DOR), and Progression-Free Survival (PFS). Table 13. PK Indicators of the compound of Formula (A) monotherapy in the dose-finding phase

The mark [3] stands for this setting: Multiple Doses, n=8, dose-expansion phase.
Where [4] appears, read: human, in vivo, oral, Single Dose, n=10, dose-finding phase.

What is called T/C is the ratio of treated to control. Usually TGI stands for how far tumour growth fell short of that in controls. By CL/F is commonly meant clearance divided by bioavailability, as obtained after extravascular dosing. For orientation: half-life means how long it takes for the measured level to halve. Read a low half-life as rapid decline. The Cmax is the highest concentration seen after dosing. One may read the Tmax as the time from dosing to the highest level.

For the molecule `CC(C)NC[C@@H](C(=O)N1CCN(c2ncnc3c2[C@H](C)CC(=O)N3)[C@H]2C[C@H]21)c1ccc(Cl)cc1` [The compound of Formula (A), (R)-4-((1S,6R)-5-((S)-2-(4-chlorophenyl)-3-(isopropylamino)propanoyl)-2,5-diazabicyclo[4.1.0]heptan-2-yl)-5-methyl-5,8-dihydropyrido[2,3-d]pyrimidin-7(6H)-one], in data set [1], the “Body weight Post 28 Days of Treatment” value is 23.8 ± 0.5 g, the “Tumor Volume 28 Days After Administration” value worked out at 684 ± 65 mm^3, the T/C is given as 58.4% and the TGI is 41.6%. In data set [2] (setting [3]), the CLss/F is 155.88 ± 81.87 L/h, the “Cav,ss” value was found to be 131.73 ± 64.21 ng/mL, the “Cmin,ss” value is 33.76 ± 14.66 ng/mL and the “Tmax,ss” value was 3.00 [0,6.00] h. This molecule came in with a CL/F in data set [2] (Single Dose, n=10, dose-finding phase) of 186.378 ± 99.471 L/h. This molecule also had a half-life in data set [2] (human, in vivo, oral, Multiple Doses, n=8, dose-expansion phase) of 12.9 ± 4.19 h. Besides, the AUC(0-t) in data set [2] (human, in vivo, oral, Multiple Doses, n=8, dose-expansion phase, read-out: AUC0-t,ss) was determined as 3530 ± 1770 ng·h/mL. Also, in data set [2] (human, in vivo, oral, Multiple Doses, n=8, dose-expansion phase, read-out: Cmax,ss), the Cmax amounted to 462 ± 245 ng/mL. Besides, the Vd/F in data set [2] (human, in vivo, oral, Multiple Doses, n=8, dose-expansion phase, read-out: Vss/F) turned out to be 2880 ± 1670 L. In data set [2] (setting [4]), the half-life is 7.22 ± 1.91 h and the Tmax stood at 3 h. Also, the AUC(0-t) in data set [2] (human, in vivo, oral, Single Dose, n=10, dose-finding phase, read-out: AUC0-t) stood at 2380 ± 1160 ng·h/mL. Moreover, the Cmax in data set [2] (human, in vivo, oral, Single Dose, n=10, dose-finding phase, read-out: Cmax) turned out to be 392 ± 178 ng/mL. Further, the Vd/F in data set [2] (human, in vivo, oral, Single Dose, n=10, dose-finding phase, read-out: Vz/F) came to 1920 ± 1000 L. The AUC in data set [2] (human, in vivo, oral, Multiple Doses, n=8, dose-expansion phase, read-out: AUC0-τ) amounted to 3160 ± 1540 ng·h/mL.

Consider `C[C@]12CC[C@@H]3c4ccc(O)cc4C[C@@H](CCCCCCCCC[S+]([O-])CCCC(F)(F)C(F)(F)F)[C@H]3[C@@H]1CC[C@@H]2O` (some centres unmarked) [Fulvestrant, reference compound], for which, in data set [1], the “Body weight Post 28 Days of Treatment” value turned out to be 25.9 ± 0.3 g, the “Tumor Volume 28 Days After Administration” value was determined as 546 ± 54 mm^3, the T/C amounted to 46.9% and the TGI is recorded as 53.1%.
